This note sets out measurements from patent US10231954B2, “Neurodegenerative therapies” (LYTIX BIOPHARMA AS, priority 2014, dated 2019).

Common to all, as to assay type: biochemical
The target of one test is MKK1 (Homo sapiens, UniProt Q02750). As to the kind of experiment: Kinase profiling MKK1. As to conditions: for residual kinase activity, MKK1: 100 micromolar inhibitor concentration, 100 is no change. From the text:
(§1) Any value less that 25 is considered to be highly significant inhibition.

The target of another test is ERK2 (Homo sapiens, UniProt P28482). Kind of test: Kinase profiling ERK2. To be noted: for residual kinase activity, ERK2: 100 micromolar inhibitor concentration, 100 is no change.
ERK2, sequence (P28482 whole entry, species assumed): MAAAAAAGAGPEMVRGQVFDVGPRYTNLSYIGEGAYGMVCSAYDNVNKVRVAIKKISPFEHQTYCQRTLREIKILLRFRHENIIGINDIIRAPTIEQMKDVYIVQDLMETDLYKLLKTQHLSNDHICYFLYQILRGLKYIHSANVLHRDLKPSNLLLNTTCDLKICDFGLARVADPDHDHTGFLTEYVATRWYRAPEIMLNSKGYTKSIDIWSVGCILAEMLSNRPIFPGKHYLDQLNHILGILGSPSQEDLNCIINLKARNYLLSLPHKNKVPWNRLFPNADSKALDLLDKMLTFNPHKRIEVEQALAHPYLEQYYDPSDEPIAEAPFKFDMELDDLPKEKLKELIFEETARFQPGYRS
Excerpt: as §1

The target in the next test is JNK3 (Homo sapiens, UniProt P53779). As to the kind of experiment: Kinase profiling JNK3. As to conditions: for residual kinase activity, JNK3: 100 micromolar inhibitor concentration, 100 is no change.
JNK3, sequence (P53779 whole entry, species assumed): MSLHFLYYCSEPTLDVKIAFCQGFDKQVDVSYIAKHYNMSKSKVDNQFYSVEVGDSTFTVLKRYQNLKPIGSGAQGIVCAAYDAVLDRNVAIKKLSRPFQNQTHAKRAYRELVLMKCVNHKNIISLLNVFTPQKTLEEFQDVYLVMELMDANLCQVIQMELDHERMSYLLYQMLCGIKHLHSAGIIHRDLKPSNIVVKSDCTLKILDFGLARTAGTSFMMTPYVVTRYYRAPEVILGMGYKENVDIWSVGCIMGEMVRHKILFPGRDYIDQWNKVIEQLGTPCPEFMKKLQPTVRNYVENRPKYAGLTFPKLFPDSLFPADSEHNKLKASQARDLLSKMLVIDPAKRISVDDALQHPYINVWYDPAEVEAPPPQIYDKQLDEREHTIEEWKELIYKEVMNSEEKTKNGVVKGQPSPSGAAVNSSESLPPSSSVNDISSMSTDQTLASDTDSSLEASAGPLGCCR
Excerpt: as §1

For another test, the target named is T1, p38g MAPK (Homo sapiens, UniProt P53778).
T1 sequence (P53778 1-367): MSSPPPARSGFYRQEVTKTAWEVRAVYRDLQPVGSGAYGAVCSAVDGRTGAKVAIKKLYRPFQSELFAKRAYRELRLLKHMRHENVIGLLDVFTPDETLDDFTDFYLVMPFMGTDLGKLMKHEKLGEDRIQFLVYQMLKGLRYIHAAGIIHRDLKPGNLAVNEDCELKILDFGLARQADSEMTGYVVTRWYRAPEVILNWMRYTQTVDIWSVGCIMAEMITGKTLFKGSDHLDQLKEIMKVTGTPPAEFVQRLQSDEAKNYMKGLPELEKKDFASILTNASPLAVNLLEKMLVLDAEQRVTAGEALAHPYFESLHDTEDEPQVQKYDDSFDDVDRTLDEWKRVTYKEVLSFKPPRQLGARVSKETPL
As to the kind of experiment: Kinase profiling p38g MAPK. To be noted: for residual kinase activity, p38g MAPK: 100 micromolar inhibitor concentration, 100 is no change.
Excerpt: as §1

The next test deals with T2, SGK1 (Homo sapiens, UniProt O00141).
T2 sequence (O00141 1-431): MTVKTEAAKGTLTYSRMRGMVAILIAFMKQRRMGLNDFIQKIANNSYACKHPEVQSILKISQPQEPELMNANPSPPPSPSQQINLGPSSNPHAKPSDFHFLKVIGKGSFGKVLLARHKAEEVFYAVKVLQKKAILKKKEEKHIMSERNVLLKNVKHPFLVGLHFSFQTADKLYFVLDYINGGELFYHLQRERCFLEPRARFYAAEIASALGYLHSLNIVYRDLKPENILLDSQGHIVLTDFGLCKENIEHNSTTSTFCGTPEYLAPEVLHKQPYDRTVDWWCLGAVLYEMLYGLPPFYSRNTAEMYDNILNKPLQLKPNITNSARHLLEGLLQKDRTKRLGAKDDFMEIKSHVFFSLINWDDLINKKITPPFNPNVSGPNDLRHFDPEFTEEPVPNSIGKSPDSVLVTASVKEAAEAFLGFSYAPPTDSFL
Kind of test: Kinase profiling SGK1. As to conditions: for residual kinase activity, SGK1: 100 micromolar inhibitor concentration, 100 is no change.
Excerpt: as §1

The target in a further test is T3, PKD1 (Homo sapiens, UniProt Q15139).
T3 sequence (Q15139 1-912): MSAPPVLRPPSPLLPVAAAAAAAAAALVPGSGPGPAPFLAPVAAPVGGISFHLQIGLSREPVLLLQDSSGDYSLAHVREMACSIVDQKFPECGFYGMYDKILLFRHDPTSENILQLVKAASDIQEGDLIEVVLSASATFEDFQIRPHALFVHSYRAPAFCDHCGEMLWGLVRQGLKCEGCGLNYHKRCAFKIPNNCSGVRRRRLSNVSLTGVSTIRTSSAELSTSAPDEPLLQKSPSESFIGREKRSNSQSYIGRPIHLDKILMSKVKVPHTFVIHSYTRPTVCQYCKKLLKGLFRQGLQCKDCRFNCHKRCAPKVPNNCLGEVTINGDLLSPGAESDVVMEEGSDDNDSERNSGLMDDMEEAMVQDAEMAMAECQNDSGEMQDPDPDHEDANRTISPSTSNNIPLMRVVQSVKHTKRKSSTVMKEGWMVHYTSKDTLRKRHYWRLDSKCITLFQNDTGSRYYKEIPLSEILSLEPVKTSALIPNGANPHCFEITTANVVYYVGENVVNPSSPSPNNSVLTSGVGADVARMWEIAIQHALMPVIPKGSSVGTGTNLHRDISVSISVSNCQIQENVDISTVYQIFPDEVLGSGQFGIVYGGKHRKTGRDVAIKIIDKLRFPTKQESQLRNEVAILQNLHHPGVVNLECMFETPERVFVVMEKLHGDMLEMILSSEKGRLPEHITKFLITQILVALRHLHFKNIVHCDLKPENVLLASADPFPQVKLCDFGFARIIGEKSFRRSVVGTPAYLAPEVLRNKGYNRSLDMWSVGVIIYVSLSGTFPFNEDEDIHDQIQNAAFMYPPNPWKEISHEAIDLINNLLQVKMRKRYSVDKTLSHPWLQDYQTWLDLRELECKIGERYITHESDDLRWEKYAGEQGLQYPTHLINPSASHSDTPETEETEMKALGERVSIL
As to the kind of experiment: Kinase profiling PKD1. To be noted: for residual kinase activity, PKD1: 100 micromolar inhibitor concentration, 100 is no change.
Excerpt: as §1

In a further test the target is STK33 (Homo sapiens, UniProt Q9BYT3). As to the kind of experiment: Kinase profiling STK33. As to conditions: for residual kinase activity, STK33: 100 micromolar inhibitor concentration, 100 is no change.
Excerpt: as §1

Another test has as its target CHK2 (Homo sapiens, UniProt O96017). Kind of test: Kinase profiling CHK2. As to conditions: for residual kinase activity, CHK2: 100 micromolar inhibitor concentration, 100 is no change.
Excerpt: as §1

The next test deals with DYRK1A (Homo sapiens, UniProt Q13627). Kind of test: DYRK 1A assay (kinase profiling). To be noted: for residual kinase activity, DYRK1A: 100 micromolar inhibitor concentration, 100 is no change. As to the method: Assays are stopped by addition of 5 μl of 0.5 M (3%) orthophosphoric acid and then harvested onto P81 Unifilter plates with a wash buffer of 50 mM orthophosphoric acid.
as §1

A further test addresses EF2K (Homo sapiens, UniProt O00418). Kind of test: Kinase profiling EF2K. To be noted: for residual kinase activity, EF2K: 100 micromolar inhibitor concentration, 100 is no change.
Excerpt: as §1

Another test deals with HIPK2 (Homo sapiens, UniProt Q9H2X6). As to the kind of experiment: Kinase profiling HIPK2. As to conditions: for residual kinase activity, HIPK2: 100 micromolar inhibitor concentration, 100 is no change.
HIPK2, sequence (Q9H2X6 whole entry, species assumed): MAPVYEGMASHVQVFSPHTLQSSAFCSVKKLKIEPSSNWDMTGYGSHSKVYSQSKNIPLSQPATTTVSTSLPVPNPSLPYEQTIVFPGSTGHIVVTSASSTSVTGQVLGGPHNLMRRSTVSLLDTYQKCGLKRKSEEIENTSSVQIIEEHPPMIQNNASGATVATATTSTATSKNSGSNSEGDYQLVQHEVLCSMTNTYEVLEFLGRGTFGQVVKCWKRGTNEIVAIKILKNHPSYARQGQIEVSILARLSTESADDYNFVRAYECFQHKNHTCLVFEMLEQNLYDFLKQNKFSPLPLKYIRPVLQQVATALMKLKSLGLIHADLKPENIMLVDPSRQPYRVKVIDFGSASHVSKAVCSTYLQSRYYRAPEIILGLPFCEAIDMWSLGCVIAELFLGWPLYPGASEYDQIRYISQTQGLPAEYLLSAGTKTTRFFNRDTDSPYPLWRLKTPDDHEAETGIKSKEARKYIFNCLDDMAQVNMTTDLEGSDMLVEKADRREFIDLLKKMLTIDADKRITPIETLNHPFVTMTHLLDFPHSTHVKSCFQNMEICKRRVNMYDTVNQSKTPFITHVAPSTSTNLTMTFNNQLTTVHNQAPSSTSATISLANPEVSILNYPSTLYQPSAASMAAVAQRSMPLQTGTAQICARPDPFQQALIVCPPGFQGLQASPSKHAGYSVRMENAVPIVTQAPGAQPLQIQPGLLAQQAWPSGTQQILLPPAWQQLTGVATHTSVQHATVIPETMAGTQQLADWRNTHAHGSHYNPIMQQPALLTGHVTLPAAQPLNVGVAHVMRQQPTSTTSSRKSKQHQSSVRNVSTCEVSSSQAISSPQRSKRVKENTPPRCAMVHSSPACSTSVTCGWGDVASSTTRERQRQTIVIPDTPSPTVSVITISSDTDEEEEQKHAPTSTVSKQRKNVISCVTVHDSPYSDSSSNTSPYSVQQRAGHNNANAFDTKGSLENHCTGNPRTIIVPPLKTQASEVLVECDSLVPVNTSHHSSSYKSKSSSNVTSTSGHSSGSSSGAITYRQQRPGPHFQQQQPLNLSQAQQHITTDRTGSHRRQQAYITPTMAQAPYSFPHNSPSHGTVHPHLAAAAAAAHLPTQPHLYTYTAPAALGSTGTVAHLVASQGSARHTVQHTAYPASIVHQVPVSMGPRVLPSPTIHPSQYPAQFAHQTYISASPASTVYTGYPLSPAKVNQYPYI
Excerpt: as §1

The target of a further test is T4, TAK1 (Homo sapiens, UniProt O43318).
T4 sequence (O43318 1-303 limits assumed): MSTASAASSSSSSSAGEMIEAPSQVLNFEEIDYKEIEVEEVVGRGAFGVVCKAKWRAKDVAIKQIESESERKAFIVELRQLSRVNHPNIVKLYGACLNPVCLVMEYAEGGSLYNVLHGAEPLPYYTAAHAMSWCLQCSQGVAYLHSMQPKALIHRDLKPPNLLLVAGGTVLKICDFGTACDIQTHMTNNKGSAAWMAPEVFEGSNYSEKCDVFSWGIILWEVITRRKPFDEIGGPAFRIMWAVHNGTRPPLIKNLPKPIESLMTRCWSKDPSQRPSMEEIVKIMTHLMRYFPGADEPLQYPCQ
T4 sequence (Q15750 437-504 partner limits assumed): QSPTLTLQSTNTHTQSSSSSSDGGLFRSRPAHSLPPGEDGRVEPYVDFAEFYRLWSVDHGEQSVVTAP
Kind of test: Kinase profiling TAK1. To be noted: for residual kinase activity, TAK1: 100 micromolar inhibitor concentration, 100 is no change.
Excerpt: as §1

The target of the next test is JAK2 (Homo sapiens, UniProt O60674). Kind of test: Kinase profiling JAK2. To be noted: for residual kinase activity, JAK2: 100 micromolar inhibitor concentration, 100 is no change.
JAK2, sequence (O60674 whole entry, species assumed): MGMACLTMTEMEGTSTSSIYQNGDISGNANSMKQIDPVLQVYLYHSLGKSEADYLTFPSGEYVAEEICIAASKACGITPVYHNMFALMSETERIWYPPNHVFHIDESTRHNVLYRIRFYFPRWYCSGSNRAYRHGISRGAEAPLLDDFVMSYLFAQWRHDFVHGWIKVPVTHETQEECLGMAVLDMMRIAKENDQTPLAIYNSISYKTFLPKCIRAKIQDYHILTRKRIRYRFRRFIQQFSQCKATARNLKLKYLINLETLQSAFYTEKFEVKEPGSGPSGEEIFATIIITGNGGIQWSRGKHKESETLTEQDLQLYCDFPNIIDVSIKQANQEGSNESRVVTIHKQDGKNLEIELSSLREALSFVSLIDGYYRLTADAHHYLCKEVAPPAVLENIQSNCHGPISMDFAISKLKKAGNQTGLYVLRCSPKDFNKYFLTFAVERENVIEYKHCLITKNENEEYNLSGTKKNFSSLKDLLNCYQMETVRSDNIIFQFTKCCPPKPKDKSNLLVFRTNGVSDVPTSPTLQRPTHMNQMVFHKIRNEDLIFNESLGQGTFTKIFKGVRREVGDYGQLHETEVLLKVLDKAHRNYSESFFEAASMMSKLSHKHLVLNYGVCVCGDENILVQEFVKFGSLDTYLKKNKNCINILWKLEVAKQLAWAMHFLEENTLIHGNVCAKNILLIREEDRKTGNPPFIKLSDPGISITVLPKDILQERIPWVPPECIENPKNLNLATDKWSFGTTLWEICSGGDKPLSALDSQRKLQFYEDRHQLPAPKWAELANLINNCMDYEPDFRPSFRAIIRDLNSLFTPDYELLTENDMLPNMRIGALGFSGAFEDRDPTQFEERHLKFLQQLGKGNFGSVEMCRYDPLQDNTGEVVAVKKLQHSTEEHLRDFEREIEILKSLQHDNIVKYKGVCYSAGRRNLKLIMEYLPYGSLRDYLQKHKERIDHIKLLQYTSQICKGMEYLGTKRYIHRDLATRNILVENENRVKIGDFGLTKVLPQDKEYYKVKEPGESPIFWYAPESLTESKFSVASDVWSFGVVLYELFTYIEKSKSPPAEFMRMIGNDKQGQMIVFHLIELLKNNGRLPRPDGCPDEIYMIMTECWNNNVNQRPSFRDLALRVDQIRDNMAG
Excerpt: as §1

The target in a further test is TrkA (Homo sapiens, UniProt P04629). As to the kind of experiment: Kinase profiling TrkA. To be noted: for residual kinase activity, TrkA: 100 micromolar inhibitor concentration, 100 is no change.
TrkA, sequence (P04629 33-796, species assumed): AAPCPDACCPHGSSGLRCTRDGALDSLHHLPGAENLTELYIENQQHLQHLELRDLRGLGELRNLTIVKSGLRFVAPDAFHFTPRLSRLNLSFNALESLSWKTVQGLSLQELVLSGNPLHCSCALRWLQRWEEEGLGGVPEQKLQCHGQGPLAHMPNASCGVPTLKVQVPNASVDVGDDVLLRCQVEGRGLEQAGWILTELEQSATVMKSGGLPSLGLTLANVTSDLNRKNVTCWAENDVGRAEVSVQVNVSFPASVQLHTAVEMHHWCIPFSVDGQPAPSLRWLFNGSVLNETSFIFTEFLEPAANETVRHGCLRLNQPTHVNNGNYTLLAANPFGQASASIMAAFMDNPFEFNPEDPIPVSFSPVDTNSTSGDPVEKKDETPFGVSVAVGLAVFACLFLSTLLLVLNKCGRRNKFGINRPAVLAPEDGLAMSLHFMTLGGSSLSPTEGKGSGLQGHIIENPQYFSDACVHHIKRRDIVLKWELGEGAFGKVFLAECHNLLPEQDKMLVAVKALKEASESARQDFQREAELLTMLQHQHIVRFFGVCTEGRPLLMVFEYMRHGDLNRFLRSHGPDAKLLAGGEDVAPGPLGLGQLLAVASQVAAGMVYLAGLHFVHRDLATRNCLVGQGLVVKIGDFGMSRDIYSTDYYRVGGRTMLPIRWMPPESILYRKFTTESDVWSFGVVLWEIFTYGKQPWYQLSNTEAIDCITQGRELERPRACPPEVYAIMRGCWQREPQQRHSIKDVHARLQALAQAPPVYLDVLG
Excerpt: as §1

The test system of the next test is VEG-FR. Kind of test: Kinase profiling VEG-FR.
Excerpt: as §1

Where [1] appears, read: 100 micromolar inhibitor concentration, 100 is no change.

CHK2, sequence (O96017 whole entry, species assumed): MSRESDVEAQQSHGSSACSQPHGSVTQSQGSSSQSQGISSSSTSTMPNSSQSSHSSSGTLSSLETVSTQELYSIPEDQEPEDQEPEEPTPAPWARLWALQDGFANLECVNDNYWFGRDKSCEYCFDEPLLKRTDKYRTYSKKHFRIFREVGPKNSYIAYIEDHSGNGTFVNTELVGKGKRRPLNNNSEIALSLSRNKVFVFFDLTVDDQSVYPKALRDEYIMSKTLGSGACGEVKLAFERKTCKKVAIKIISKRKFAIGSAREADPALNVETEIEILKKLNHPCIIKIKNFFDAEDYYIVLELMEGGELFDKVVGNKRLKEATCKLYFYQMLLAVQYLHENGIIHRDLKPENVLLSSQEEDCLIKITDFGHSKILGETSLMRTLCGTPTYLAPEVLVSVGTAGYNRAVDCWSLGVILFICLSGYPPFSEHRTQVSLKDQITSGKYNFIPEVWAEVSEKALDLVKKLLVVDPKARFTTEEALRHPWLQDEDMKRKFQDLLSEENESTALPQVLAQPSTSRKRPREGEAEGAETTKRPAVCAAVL
MKK1, sequence (Q02750 whole entry, species assumed): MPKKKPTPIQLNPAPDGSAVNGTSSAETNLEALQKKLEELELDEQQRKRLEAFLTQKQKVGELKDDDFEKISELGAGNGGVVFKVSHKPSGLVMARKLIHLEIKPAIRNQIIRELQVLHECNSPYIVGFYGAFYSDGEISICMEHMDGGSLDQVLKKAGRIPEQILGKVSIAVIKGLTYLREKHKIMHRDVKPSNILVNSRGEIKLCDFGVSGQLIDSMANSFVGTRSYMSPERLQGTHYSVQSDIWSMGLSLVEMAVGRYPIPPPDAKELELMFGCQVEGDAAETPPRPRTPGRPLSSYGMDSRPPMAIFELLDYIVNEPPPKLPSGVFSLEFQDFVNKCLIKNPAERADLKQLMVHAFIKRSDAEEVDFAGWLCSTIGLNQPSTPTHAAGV

Turning to `CC(=O)Nc1cccc(NC(=O)c2nc3ccc(O)cc3s2)c1` [Compound 03-07, N-(3-acetamidophenyl)-6-hydroxybenzo[d]thiazole-2-carboxamide], the remaining activity at 100 µM on MKK1 (100 micromolar inhibitor, 100 = no change, read-out: residual kinase activity, MKK1) was 85%; on ERK2 (100 micromolar inhibitor, 100 = no change, read-out: residual kinase activity, ERK2), 96%; at JNK3 (100 micromolar inhibitor, 100 = no change, read-out: residual kinase activity, JNK3) it was 50%; on p38g MAPK (100 micromolar inhibitor, 100 = no change, read-out: residual kinase activity, p38g MAPK) it was 93%; on SGK1 (100 micromolar inhibitor, 100 = no change, read-out: residual kinase activity, SGK1), 64%; at PKD1 (100 micromolar inhibitor, 100 = no change, read-out: residual kinase activity, PKD1), 61%. Also, the remaining activity at 100 µM amounted to 63% on STK33 (100 micromolar inhibitor, 100 = no change, read-out: residual kinase activity, STK33); 23% on CHK2 (100 micromolar inhibitor, 100 = no change, read-out: residual kinase activity, CHK2); 30% at DYRK1A (100 micromolar inhibitor, 100 = no change, read-out: residual kinase activity, DYRK1A); 91% at EF2K (100 micromolar inhibitor, 100 = no change, read-out: residual kinase activity, EF2K); 46% at HIPK2 (100 micromolar inhibitor, 100 = no change, read-out: residual kinase activity, HIPK2); 53% on TAK1 (100 micromolar inhibitor, 100 = no change, read-out: residual kinase activity, TAK1). Besides, the remaining activity at 100 µM at JAK2 (100 micromolar inhibitor, 100 = no change, read-out: residual kinase activity, JAK2) was 56%; on TrkA (100 micromolar inhibitor, 100 = no change, read-out: residual kinase activity, TrkA), 59%. Further, the “residual kinase activity, VEG-FR” value in the test on VEG-FR (100 micromolar inhibitor, 100 = no change) is given as 28.

On to `O=C(Nc1nc2cc(O)ccc2s1)c1ccncc1` [Compound 03-11], for which the “residual kinase activity, MKK1” value on MKK1 is given as 88. Further, the “residual kinase activity, ERK2” value at ERK2 is reported as 85. On JNK3, the “residual kinase activity, JNK3” value amounted to 77. On p38g MAPK, the “residual kinase activity, p38g MAPK” value was 93. Besides, at SGK1, the “residual kinase activity, SGK1” value is given as 84. The “residual kinase activity, PKD1” value at PKD1 was found to be 74. In addition, the “residual kinase activity, STK33” value on STK33 is 77. Further, the “residual kinase activity, CHK2” value at CHK2 turned out to be 93. Moreover, the “residual kinase activity, DYRK1A” value on DYRK1A came out at 50. The “residual kinase activity, EF2K” value on EF2K is 79. For the same molecule, the “residual kinase activity, HIPK2” value at HIPK2 came out at 67. In addition, on TAK1, the “residual kinase activity, TAK1” value was determined as 55. Moreover, on JAK2, the “residual kinase activity, JAK2” value worked out at 66. At TrkA, the “residual kinase activity, TrkA” value was determined as 87. Besides, the “residual kinase activity, VEG-FR” value with VEG-FR (setting [1]) came to 58.

On to `O=C(Nc1nc2ccc(O)cc2s1)c1ccccn1` [Compound 03-12], for which the “residual kinase activity, MKK1” value on MKK1 was found to be 80. The “residual kinase activity, ERK2” value on ERK2 is 88. At JNK3, the “residual kinase activity, JNK3” value is 70. Moreover, at p38g MAPK, the “residual kinase activity, p38g MAPK” value is recorded as 89. The “residual kinase activity, SGK1” value at SGK1 is reported as 88. Besides, the “residual kinase activity, PKD1” value on PKD1 is 70. Moreover, at STK33, the “residual kinase activity, STK33” value is 65. Moreover, at CHK2, the “residual kinase activity, CHK2” value is given as 23. For the same molecule, the “residual kinase activity, DYRK1A” value at DYRK1A is 33. Also, the “residual kinase activity, EF2K” value at EF2K is recorded as 69. Further, at HIPK2, the “residual kinase activity, HIPK2” value is 18. For the same molecule, the “residual kinase activity, TAK1” value on TAK1 is recorded as 33. Also, the “residual kinase activity, JAK2” value on JAK2 was found to be 71. Also, the “residual kinase activity, TrkA” value on TrkA was determined as 49. Also, in the test on VEG-FR (setting [1]), the “residual kinase activity, VEG-FR” value stood at 17.

Take `O=C(Nc1nc2cc(O)ccc2s1)c1ccccn1` [Compound 03-13]: the “residual kinase activity, MKK1” value at MKK1 stood at 107. The “residual kinase activity, ERK2” value on ERK2 was found to be 100. The “residual kinase activity, JNK3” value at JNK3 amounted to 67. At p38g MAPK, the “residual kinase activity, p38g MAPK” value came to 94. Besides, the “residual kinase activity, SGK1” value on SGK1 was 74. Moreover, the “residual kinase activity, PKD1” value on PKD1 is recorded as 76. The “residual kinase activity, STK33” value at STK33 came to 71. At CHK2, the “residual kinase activity, CHK2” value is on record as 75. At DYRK1A, the “residual kinase activity, DYRK1A” value worked out at 25. For the same molecule, at EF2K, the “residual kinase activity, EF2K” value is recorded as 94. Also, the “residual kinase activity, HIPK2” value at HIPK2 is 43. At TAK1, the “residual kinase activity, TAK1” value is 34. Moreover, the “residual kinase activity, JAK2” value at JAK2 is given as 98. Moreover, on TrkA, the “residual kinase activity, TrkA” value was 57. Also, the “residual kinase activity, VEG-FR” value with VEG-FR (setting [1]) came to 24.
